Blank lines part the entries; values can stand above or below the compound they belong to. Active and inactive are the calls of the source.
What was measured:
[1] = molecular target: T1, Zinc finger protein mex-5 (Caenorhabditis elegans, UniProt Q9XUB2); assay: potency of MEX-5 RNA-binding blockers – biochemical, C. elegans, fluorescence polarization, dose response (AID 1960)
T1 sequence (Q9XUB2 whole entry): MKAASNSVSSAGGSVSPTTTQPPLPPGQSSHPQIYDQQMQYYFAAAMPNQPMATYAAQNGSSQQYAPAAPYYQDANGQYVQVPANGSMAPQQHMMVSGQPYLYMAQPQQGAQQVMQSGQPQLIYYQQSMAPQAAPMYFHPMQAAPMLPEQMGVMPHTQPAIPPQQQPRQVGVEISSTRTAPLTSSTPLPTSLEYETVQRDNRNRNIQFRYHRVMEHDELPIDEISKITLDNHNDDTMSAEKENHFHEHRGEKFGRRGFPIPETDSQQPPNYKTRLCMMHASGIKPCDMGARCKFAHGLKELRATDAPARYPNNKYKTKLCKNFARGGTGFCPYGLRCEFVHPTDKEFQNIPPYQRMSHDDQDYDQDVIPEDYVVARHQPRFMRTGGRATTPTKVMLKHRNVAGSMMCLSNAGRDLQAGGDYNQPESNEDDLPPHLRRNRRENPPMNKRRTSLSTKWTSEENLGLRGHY

SUMO-activating enzyme [2] = molecular target: T2, SUMO-activating enzyme (Homo sapiens, UniProt Q9UBT2); assay: blockers of UBC9-mediated SUMO conjugation – biochemical, AlphaScreen, SUMOylation inhibitor project, confirmation (AID 2018); type: functional
Cytochrome P450 1A2 = molecular target: T3, Cytochrome P450 1A2 (Homo sapiens, UniProt P05177);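 further: PubChem cytochrome P450 panel assay, CYP1A2 panel member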
T3 sequence (P05177 whole entry): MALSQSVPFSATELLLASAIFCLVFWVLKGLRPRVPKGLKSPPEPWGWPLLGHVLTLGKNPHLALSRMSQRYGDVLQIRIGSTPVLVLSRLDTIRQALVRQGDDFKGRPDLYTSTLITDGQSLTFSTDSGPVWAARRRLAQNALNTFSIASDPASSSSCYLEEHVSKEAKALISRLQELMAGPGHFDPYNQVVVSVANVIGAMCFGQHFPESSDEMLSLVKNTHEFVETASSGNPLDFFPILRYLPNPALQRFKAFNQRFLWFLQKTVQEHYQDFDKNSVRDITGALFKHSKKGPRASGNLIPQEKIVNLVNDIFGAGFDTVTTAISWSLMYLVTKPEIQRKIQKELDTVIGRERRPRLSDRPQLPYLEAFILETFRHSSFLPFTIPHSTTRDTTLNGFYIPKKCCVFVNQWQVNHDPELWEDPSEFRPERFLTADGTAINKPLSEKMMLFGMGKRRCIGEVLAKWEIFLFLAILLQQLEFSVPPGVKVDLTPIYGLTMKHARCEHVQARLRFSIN

SUMO-activating enzyme [3] = molecular target: T2, SUMO-activating enzyme; assay: blockers of SAE1/SAE2–UBC9 SUMO transfer – biochemical, HTRF, uHTS, primary screen (AID 2006); type: protein-complex assay
[4] = molecular target: T4, RNA-binding protein pos-1 (Caenorhabditis elegans, UniProt G5EF15); assay: disruptors of C. elegans POS-1 RNA interaction – biochemical, fluorescence polarization, dose response (AID 1964);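 further: purified POS-1 fused to maltose binding protein made in E. coli; potency of compounds blocking POS-1 binding to fluorescent RNA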
T4 sequence (G5EF15 whole entry): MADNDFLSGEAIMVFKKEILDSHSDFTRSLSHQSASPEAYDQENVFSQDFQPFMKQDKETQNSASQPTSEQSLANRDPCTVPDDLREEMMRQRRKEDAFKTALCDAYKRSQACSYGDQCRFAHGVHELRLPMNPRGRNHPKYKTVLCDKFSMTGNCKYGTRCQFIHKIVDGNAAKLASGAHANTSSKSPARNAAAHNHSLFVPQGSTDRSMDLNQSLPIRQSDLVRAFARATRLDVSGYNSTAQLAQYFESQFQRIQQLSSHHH

Large T antigen = Large T antigen (Simian virus 40, UniProt P03070); type: functional, Betapolyomavirus macacae;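 further: Confirmatory-stage PubChem screen for compounds that inhibit SV40 T antigen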
Cytochrome P450 2C19 = Cytochrome P450 2C19 (Homo sapiens, UniProt P33261); assay: Cytochrome panel assay with activity outcomes. Panel member name: p450-cyp2c19 Compounds with AC50 equal or less than 10 uM are considered active; type: functional; details: read-out: AC50
Cytochrome P450 2D6 = Cytochrome P450 2D6 (Homo sapiens, UniProt P10635);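 further: CYP2D6 member of a cytochrome P450 panel assay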
[5] = molecular target: Melanin-concentrating hormone receptor 1 (Homo sapiens, UniProt Q99705); assay: Fluorescence-based counterscreen for antagonists of the G-protein coupled receptor 7 (GPR7): cell-based high throughput dose response assay to identify antagonists of the melanin-concentrating hormone receptor 1 (MCHR1).; type: functional
[6] = viability of uninfected HEp-2 cells – cell-based, HTS, cytotoxicity control for RSV inhibitor project, dose response (AID 2410); type: functional; details: human respiratory syncytial virus
[7] = molecular target: Neuropeptides B/W receptor type 1 (Homo sapiens, UniProt P48145); assay: Fluorescence-based dose response cell-based high throughput screening assay to identify antagonists of the G-protein coupled receptor 7 (GPR7). [Related pubchem assays: 1952 (Screening assay (GPR7 antagonists).), 1880 (Summary AID.)]; type: functional
[8] = molecular target: Signal transducer and activator of transcription 3 (Homo sapiens, UniProt P40763); assay: STAT3 activation with BCL3 mRNA and toxicity – cell-based, […], BCL3 qPCR, cytotoxicity, late-stage follow-up, panel member STAT3 Activation (AID 2049)
Sequence of Signal transducer and activator of transcription 3 (P40763 whole entry): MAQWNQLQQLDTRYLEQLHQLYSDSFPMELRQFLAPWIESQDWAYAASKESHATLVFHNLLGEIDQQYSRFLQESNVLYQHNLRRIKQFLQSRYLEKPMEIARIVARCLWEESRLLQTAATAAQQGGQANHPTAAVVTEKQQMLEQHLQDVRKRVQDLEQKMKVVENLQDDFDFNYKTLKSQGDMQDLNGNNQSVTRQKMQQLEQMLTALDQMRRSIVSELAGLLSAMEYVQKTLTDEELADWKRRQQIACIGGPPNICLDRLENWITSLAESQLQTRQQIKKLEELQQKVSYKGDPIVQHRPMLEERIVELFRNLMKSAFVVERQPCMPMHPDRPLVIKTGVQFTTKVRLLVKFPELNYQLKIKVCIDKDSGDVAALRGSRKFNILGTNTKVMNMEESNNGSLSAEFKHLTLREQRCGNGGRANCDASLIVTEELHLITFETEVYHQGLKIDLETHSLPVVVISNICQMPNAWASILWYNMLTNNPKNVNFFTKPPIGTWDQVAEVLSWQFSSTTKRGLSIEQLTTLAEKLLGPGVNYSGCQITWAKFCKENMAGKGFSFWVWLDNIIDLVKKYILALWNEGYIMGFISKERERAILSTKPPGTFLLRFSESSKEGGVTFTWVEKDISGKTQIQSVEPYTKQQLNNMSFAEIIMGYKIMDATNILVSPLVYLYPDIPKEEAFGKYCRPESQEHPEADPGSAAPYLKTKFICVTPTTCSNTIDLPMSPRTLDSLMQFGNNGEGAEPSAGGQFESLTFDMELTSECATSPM

T2 sequence (Q9UBE0 whole entry): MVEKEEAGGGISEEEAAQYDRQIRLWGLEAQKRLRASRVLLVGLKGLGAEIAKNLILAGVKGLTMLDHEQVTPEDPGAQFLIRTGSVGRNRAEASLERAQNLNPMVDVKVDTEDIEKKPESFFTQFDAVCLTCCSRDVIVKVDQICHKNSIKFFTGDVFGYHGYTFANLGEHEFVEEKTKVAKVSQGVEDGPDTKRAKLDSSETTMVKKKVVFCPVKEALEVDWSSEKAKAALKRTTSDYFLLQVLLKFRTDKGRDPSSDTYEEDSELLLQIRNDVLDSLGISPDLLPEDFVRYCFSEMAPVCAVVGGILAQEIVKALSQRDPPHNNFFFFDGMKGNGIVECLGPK
T2 sequence (Q9UBT2 whole entry): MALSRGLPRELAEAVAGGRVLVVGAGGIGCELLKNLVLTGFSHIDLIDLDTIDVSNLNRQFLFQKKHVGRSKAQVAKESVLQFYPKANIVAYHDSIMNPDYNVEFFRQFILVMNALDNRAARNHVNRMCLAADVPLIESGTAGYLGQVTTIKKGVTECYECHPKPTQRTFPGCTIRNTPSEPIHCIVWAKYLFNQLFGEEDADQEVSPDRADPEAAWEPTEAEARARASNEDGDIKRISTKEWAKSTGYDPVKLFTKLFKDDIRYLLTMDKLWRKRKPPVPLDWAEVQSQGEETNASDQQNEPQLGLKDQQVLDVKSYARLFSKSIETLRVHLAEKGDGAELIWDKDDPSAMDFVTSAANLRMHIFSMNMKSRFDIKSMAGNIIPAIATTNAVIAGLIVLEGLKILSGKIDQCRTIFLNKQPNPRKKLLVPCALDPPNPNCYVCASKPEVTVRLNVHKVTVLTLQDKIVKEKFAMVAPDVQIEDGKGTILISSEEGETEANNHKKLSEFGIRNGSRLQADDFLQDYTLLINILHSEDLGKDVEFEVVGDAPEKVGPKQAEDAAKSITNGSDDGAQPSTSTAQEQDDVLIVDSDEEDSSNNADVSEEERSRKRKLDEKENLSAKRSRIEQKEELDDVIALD
Sequence of Melanin-concentrating hormone receptor 1 (Q99705 whole entry): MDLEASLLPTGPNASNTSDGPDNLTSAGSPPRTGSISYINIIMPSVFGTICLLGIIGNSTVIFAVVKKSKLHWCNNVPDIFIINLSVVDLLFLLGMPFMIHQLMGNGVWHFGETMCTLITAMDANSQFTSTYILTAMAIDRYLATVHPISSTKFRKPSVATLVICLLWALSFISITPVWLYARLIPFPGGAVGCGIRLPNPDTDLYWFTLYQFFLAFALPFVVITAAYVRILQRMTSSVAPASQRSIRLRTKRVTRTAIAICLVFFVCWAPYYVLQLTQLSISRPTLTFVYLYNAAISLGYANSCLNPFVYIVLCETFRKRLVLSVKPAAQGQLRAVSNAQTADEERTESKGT
Sequence of Large T antigen (P03070 whole entry): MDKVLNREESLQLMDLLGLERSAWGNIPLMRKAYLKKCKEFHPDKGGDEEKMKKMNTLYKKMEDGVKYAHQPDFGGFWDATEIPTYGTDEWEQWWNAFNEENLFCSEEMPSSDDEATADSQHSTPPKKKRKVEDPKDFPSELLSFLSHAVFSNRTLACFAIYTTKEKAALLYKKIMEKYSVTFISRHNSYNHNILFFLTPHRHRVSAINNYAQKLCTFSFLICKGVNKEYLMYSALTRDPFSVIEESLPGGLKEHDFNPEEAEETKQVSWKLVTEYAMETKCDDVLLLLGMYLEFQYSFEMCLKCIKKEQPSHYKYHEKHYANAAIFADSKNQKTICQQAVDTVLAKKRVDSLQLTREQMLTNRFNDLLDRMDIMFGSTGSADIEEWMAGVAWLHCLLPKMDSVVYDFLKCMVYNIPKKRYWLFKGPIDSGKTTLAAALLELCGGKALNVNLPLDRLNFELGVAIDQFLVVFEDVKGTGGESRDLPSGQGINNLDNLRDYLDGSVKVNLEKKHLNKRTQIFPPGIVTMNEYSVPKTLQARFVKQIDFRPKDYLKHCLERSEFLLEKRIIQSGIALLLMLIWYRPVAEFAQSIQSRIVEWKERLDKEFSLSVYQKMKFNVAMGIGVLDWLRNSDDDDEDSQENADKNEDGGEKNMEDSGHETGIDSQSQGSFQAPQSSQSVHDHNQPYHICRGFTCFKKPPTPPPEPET
Sequence of Cytochrome P450 2C19 (P33261 whole entry): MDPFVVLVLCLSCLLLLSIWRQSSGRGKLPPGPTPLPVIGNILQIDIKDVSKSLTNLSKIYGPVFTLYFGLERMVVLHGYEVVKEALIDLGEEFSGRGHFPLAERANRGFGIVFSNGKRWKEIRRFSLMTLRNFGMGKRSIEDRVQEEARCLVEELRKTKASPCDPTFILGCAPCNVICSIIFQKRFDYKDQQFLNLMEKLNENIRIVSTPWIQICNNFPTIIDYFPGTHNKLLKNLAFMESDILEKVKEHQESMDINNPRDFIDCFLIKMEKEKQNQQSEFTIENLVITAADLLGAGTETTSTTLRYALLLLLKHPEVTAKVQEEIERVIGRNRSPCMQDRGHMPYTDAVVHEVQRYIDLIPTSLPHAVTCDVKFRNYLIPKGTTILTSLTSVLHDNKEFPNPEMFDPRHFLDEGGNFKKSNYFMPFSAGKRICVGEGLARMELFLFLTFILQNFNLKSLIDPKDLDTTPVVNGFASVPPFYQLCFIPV
Sequence of Neuropeptides B/W receptor type 1 (P48145 whole entry): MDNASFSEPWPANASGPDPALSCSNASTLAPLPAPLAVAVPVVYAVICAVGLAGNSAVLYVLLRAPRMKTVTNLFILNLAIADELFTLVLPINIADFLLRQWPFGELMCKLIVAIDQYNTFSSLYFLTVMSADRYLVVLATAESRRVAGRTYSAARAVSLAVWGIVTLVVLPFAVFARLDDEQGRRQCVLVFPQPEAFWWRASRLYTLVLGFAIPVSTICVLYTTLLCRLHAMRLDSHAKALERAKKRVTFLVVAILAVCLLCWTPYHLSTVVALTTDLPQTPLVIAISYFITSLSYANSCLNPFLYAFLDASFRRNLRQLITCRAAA
Sequence of Cytochrome P450 2D6 (P10635 whole entry): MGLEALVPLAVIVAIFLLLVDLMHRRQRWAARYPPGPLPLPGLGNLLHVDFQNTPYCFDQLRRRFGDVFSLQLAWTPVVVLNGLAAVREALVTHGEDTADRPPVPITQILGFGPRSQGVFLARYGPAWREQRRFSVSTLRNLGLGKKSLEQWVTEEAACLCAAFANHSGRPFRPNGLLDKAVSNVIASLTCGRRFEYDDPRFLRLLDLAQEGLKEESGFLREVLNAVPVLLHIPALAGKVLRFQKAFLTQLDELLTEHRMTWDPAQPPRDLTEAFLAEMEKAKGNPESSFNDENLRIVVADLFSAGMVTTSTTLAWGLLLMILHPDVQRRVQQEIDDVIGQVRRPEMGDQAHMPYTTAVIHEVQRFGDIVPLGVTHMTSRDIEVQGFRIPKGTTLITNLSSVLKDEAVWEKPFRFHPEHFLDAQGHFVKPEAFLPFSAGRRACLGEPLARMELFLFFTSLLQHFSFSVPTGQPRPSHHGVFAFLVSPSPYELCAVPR

- EC50 [1]: > 300 µM (not active)
- IC50 (SUMO-activating enzyme [2]): 2.28 µM (active)
- AC50 (Cytochrome P450 1A2): 1.58 µM (inconclusive)
- IC50 (SUMO-activating enzyme [3]): 32.7 µM (active)
- EC50 [4]: > 300 µM (not active)
- IC50 (Large T antigen): 59.6 µM (active)
- AC50 (Cytochrome P450 2C19): 15.8 µM (inconclusive)
- AC50 (Cytochrome P450 2D6): 15.8 µM (inconclusive)
SMILES: N=C1/C(=C\c2ccc(SCc3ccco3)o2)C(=O)N=C2SC=NN12

- IC50 [5]: 26.2 µM (not active)
- IC50 [7]: > 43.8 µM (not active)
SMILES: Cc1cc(C[n+]2cc(Br)ccc2N)c2ncccc2c1
- CC50 [6]: 46.4 µM (active)

SMILES: COc1cc(NC(=O)c2cc(C(C)C)on2)c(OC)cc1Cl
- EC50 [8]: 0.00104 µM (active)

— ChEMBL document CHEMBL1201862, “PubChem BioAssay data set” (2004)
